# Data from patent US20170354659A1, “COMPOSITIONS CONTAINING DEFINED CAFFEINE AND THEOBROMINE LEVELS WITH ENHANCED COGNITIVE PROPERTIES” (The Hershey Company, priority 2014, published 2017).
# Columns and labels:
# [1] = system: regions of the brain associated with caffeine cravings; assay: fMRI brain blood flow/connectivity analysis; type: in vivo, human; details: subjects with a caffeine habit, FIG. 1 and 3
# Excerpt: Measurement or detection of changes in the brain can be done using functional MRI (fMRI) and functional brain network analyses as known in the art. The following is an exemplary study using known techniques based upon fMRI scanning of human brains.
# These examples represent an intervention study (number of subjects=24) with a randomized controlled, double-blind, placebo-controlled crossover design. The study is designed to ensure completion of all possibilities in the order of delivering the test samples, i.e. each subject is administered each of the possible test beverages in different order. An approximately equal number of men and women should be included and ethnic groups and minorities should also be included. For initial baseline testing, subjects undergo 16 hours of caffeine and chocolate withdrawal for a baseline testing and then participate in four separate brain scanning visits over 5-10 weeks. […] As determined from a medical screening session, any subjects with active neurological dysfunction (such as a major Axis I psychopathology, Alzheimer's disease, Parkinson's disease, prior history of stroke, epilepsy, or serious CNS trauma, ADHD, migraines, hypertension, diabetes, peripheral vascular disease, or taking vasoactive medications, such as antihypertensive medications) are excluded from the study. […]
# [2] = system: brain blood flow; details: difference between caffeine and theobromine, 6 participants; cited from earlier work
SMILES,change in blood flow/connectivity by fMRI [1],brain blood flow difference [2] [ml/100 gm tissue/min]
"Cn1c(=O)c2c(ncn2C)n(C)c1=O [Caffeine, caffeine]",typical reduction in blood flow/connectivity,
Cn1cnc2c1c(=O)[nH]c(=O)n2C [theobromine],,5.03
